Results as given in ChEMBL document CHEMBL1153159, “Oxime derivatives related to AP18: Agonists and antagonists of the TRPA1 receptor” (Bioorg Med Chem Lett, 2010).

Key:
Type in all cases: functional, cell-based
[1] = molecular target: T1, Transient receptor potential cation channel subfamily A member 1 (Homo sapiens, UniProt O75762); assay: Agonist activity at human TRPA1 expressed in HEK293 cells assessed as [45]Ca2+ influx by microbeta plate count
[2] = molecular target: T1, Transient receptor potential cation channel subfamily A member 1; assay: Agonist activity at human TRPA1 expressed in HEK293 cells assessed as [45]Ca2+ influx by microbeta plate count relative to cinnamaldehyde
[3] = molecular target: T1, Transient receptor potential cation channel subfamily A member 1; assay: Antagonist activity at human TRPA1 expressed in HEK293 cells assessed as [45]Ca2+ influx by microbeta plate count
[4] = molecular target: T1, Transient receptor potential cation channel subfamily A member 1; assay: Antagonist activity at human TRPA1 expressed in HEK293 cells assessed as inhibition of cinnamaldehyde-induced [45]Ca2+ influx by microbeta plate count

T1 sequence (O75762 whole entry): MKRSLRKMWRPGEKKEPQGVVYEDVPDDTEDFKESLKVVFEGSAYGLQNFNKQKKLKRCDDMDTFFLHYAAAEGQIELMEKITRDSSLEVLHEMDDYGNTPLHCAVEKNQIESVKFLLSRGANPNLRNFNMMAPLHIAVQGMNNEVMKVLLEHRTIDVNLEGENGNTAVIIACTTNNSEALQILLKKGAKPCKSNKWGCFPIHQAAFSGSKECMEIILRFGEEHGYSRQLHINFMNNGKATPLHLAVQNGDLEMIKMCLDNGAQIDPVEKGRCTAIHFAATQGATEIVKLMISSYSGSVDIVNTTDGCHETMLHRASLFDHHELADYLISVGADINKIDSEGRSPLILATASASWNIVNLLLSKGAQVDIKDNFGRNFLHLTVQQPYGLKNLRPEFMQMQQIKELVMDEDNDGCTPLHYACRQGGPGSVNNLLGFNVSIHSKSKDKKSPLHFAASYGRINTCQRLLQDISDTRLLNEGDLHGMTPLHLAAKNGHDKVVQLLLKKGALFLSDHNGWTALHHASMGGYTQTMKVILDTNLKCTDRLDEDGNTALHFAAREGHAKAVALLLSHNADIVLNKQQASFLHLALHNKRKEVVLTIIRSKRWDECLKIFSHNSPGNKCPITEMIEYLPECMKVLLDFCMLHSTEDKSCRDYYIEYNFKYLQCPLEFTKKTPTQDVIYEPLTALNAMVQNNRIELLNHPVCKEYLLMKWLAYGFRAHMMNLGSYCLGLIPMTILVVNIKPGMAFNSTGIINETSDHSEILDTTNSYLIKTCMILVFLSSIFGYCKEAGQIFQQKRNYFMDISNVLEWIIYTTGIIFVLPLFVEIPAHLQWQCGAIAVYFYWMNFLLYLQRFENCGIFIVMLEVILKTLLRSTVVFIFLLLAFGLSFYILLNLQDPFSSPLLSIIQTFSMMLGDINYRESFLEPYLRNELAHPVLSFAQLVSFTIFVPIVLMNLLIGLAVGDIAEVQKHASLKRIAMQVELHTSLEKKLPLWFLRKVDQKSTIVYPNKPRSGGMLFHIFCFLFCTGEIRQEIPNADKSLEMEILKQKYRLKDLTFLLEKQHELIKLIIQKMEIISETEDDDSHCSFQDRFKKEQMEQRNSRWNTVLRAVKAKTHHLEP

Structure (SMILES) | EC50 [1] | Efficacy [2] | IC50 [3] | KB [4]
CC(/C=C/c1ccc2c(c1)OCO2)=N\O | 11.5 µM | 0.54 | – | –
O/N=C/C=C/c1ccccc1 | – | 0 | – | –
O/N=C/C=C/c1ccc(Cl)cc1 | – | 0.46 | – | –
CN(C)c1ccc(/C=C/C=N/O)cc1 | 15.9 µM | 0.87 | – | –
NC(/C=C/c1cc(C(F)(F)F)cc(C(F)(F)F)c1)=N\O | – | < 0.1 | – | –
CC(=C\c1cccc([N+](=O)[O-])c1)/C(C)=N/O | – | 0 | – | –
CC(=C\c1ccccc1)/C(C)=N/O | – | 0 | 2.7 µM | 1.91 µM
CC(=C\c1cccc(C)c1)/C(C)=N/O | 14.4 µM | 0.84 | – | –
CC(=C\c1ccccc1Cl)/C(C)=N/O | – | 0 | – | –
CC(/C=C/c1cccc(Cl)c1)=N/O | – | 0.21 | – | –
CC(/C=C/c1cccc(Cl)c1)=N\O | 63.1 µM | 0.85 | – | –
CC(/C=N/O)=C\c1ccccc1 | 69.4 µM | 0.18 | – | –
O=C/C=C/c1ccccc1 [CINNAMALDEHYDE] | 51.4 µM | – | – | –
CC(/C=C/c1ccc(Cl)cc1)=N\O | 27.6 µM | 0.66 | – | –
O/N=C/C=C/c1ccc(C(F)(F)F)cc1 | – | 0.13 | – | –
CC(/C=C/c1ccccc1)=N\O | 96.6 µM | 0.27 | – | –
CC(=C\c1ccc(Cl)cc1)/C(C)=N/O [AP18 5] | – | 0 | 2.8 µM | 1.26 µM
COc1ccc(/C=C(C)/C(C)=N/O)cc1 | 46.1 µM | 0.23 | – | –
O/N=C\C=C\c1ccc(Cl)cc1 | 9.4 µM | 0.85 | – | –
CC(/C=N/O)=C\c1ccc(C(C)(C)C)cc1 | – | 0.15 | – | –
